Results from patent US20260183420A1, “ACTIVATED NANOTHERAPY FOR SICKLE CELL DISEASE” (UNIVERSITY OF MARYLAND, BALTIMORE, priority 2022, published 2026).

What was measured:
[1] = human trials; cited from earlier work
human SS RBCs = assay: Laser ektacytometry during controlled deoxygenation/reoxygenation (LORRCA Oxygenscan): POS, POR, elongation index; type: cell-based; details: 1 hour
Text: The LORRCA red blood cell analysis platform was used to obtain information on deformability (cell and cell membrane stability), including under an osmotic gradient (osmotic resistance). The platform also can provide data on aggregation tendency and kinetics and measure the relative oxygen pressure at the critical point when the red blood cells start to sickle. Here, RBC Osmotic Fragility (elongation index (EI) vs. osmolality at specific sheer), RBC Deformability (EI vs sheer at specific osmolality), and RBC Oxyscan Sickling Characteristics (EI vs pO2) were determined. See, for example, FIG. 5.
See FIG. 6 for a description of how EI is calculated. See FIG. 7 for an example calculation of Oxyscan analysis parameters. […] LORRCA determines POS as the pO2 corresponding to a 5% decrease in EImax. If the EI is not completely stable at high pO2 (i.e., the Oxyscan baseline is not level), POS is calculated to be artificially high. FIG. 9 is a graph showing an example point of sickling (POS) determination from “first derivative,” which is taken from the plot. A common method to process, the first derivative of a spectrum is the rate of change of absorbance with respect to wavelength.
(§1) FIG. 19A presents illustrative chromatograms (standards & samples).
(§2) 5-HMF-induced Hb modification was quantitated by HPLC (Waters™ e2695XE Alliance™, Swift WCX-PEEK); O2 dissociation curves (ODC) were measured in intact RBCs (HEMOX Analyzer); pO2's at the point of sickling (POS) and point of unsickling (POU) were determined during controlled Hb O2 unloading/loading, respectively (LORRCA Oxygenscan RR Mechatronics).
(§3) After either 1 hour or 3 hours, either or both oxygen dissociation curves (ODC) or laser ektacytometry was performed to measure either or both p50 and POS/POR. […] As for PK data, effect upon p50 and POS/POR appear to progress from 1 hour to 3 hours. […] See also the results in FIG. 23. CNP=carbon nanoparticle.

[2] = biological target: T1, Hb (HbS) in human SS RBCs (Homo sapiens, UniProt P69905); assay: 5-HMF-induced Hb modification quantitated by cation exchange HPLC in RBCs from SCD patients; type: cell-based
T1 construct: endogenous in cells; host or cells: red blood cells from patients with sickle cell disease (human SS RBCs)
T1 sequence (P69905 2-142): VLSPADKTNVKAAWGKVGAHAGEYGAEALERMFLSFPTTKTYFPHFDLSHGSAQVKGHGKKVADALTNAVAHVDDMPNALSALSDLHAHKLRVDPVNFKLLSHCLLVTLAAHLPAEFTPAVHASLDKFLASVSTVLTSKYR
T1 sequence (P68871 with tags, fused parts or gaps E7V partner): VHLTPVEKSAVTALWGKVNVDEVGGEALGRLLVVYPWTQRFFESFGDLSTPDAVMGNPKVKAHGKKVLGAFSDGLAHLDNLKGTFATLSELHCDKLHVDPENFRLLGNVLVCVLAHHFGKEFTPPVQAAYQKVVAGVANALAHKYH
Description: HPLC was performed to detect binding of an allosteric effector to Hb.
as §1, §2
See data in FIG. 21A and FIG. 21B (control patients) and FIG. 21C and FIG. 21D (SCD patients).

[3] = biological target: T2, Hb (HbO2 affinity) in intact SRBCs (Homo sapiens, UniProt P69905); assay: O2 dissociation curve / HbO2 affinity (p50) in intact SRBCs (HEMOX Analyzer); type: cell-based; details: pH 7.4, 5 mM 5-HMF, 1 hour, intact SCD RBCs
T2 construct: endogenous in cells; host or cells: red blood cells from patients with sickle cell disease (human SS RBCs)
T2 sequence (P69905 2-142): as the sequence (P69905 2-142) above
T2 sequence (P68871 with tags, fused parts or gaps E7V partner): as the sequence (P68871 with tags, fused parts or gaps E7V partner) above
Description: Hemox analysis methods determine oxygen partial pressure and the degree of hemoglobin saturation with oxygen using a Clark oxygen electrode and spectrophotometry, respectively.
as §1, §2, §3

[4] = test system: RBCs from subjects without sickle cell disease; assay: RBC lysis, blood from subjects without sickle cell disease; type: cell-based, human; details: healthy blood, 1-hour incubation at 37° C.
Description: Blood samples (RBCs) from subjects without sickle cell disease were tested with compounds to determine whether the compounds have any impact on RBC physiology, including tests for lysis, LORRCA (deformability and osmotic fragility), and HEMOX (ODC (p50) and cooperativity (Hill number)) after a 1-hour incubation at 37° C. See FIG. 33 for results for HPLC analysis of Hb modification; FIG. 34 for results for % RBC lysis for control blood (combined); FIG. 35 for results as shown; FIG. 36 for results for RBC osmotic fragility; and FIG. 37 for p50 and Hill number results for the oxygen dissociation curve (ODC).

O=Cc1ccc(CO)o1 [Nanoparticle 5-HMF, 5-(hydroxymethyl)furfural]
bioavailability [1]: low bioavailability | half-life [1]: ~1 h | POR decrease (human SS RBCs; 0 vs 5 mM 5-HMF): 45% | POS decrease (human SS RBCs; 0 vs 5 mM 5-HMF): 30% | pO2 at point of sickling (POS) (human SS RBCs; 5 mM 5-HMF, SCD RBCs): 39.8±11.6 Torr | 5-HMF induced Hb modification (maximal) ([2]; SCD RBCs, 20% Hct, 37° C., 1 hour, 5 mM 5-HMF): about 75% | relative efficacy for % 5-HMF adducted Hb (ranking high to low) ([2]; equimolar for 5-HMF (5 mM), 0.25-24 hours): (high to low): free CoNP, 5-HMF, LP, CD, LNP | ODC p50 [3]: 20.3±1.5 Torr | RBC lysis versus PBS control [4]: no difference
